Experimental data reported in patent publication US20250073255A1, “USE OF FA-TYPE LIPID COMPOUNDS IN PREPARATION OF NUCLEIC ACID DELIVERY REAGENT AND RELATED PRODUCT” (BEIJING BAISHIKANG PHARMACEUTICAL TECHNOLOGY (BSJPHARMA) …, priority 2021, published 2025).

System: C57BL/6 male mice
Assay: In vivo delivery study of lipid nucleic acid mixture (oral gavage, RT-qPCR of PGY-sRNA-26 in tissues)
Design: species or system mouse
Conditions: for overall delivery efficacy: delivering nucleic acids into each tissue and blood tested: 100 μg lipid:10 nmol PGY-sRNA-26, all tissues and blood tested; for oral delivery of single-stranded sRNA nucleic acids into mouse blood / oral delivery of single-stranded sRNA nucleic acids into mouse brain tissue / oral delivery of single-stranded sRNA nucleic acids into mouse femur / oral delivery of single-stranded sRNA nucleic acids into mouse heart tissue / oral delivery of single-stranded sRNA nucleic acids into mouse intestinal tissue / oral delivery of single-stranded sRNA nucleic acids into mouse kidney tissue / oral delivery of single-stranded sRNA nucleic acids into mouse liver tissue / oral delivery of single-stranded sRNA nucleic acids into mouse lung tissue / oral delivery of single-stranded sRNA nucleic acids into mouse spleen tissue / oral delivery of single-stranded sRNA nucleic acids into mouse stomach tissue / oral delivery of single-stranded sRNA nucleic acids into mouse pancreatic tissue: 100 μg lipid:10 nmol PGY-sRNA-26, sampled after 12 hours; for oral delivery of single-stranded sRNA nucleic acids into mouse heart tissue: vs free uptake group; for oral delivery of single-stranded sRNA nucleic acids into mouse intestinal tissue: intestine; for oral delivery of single-stranded sRNA nucleic acids into mouse pancreatic tissue: pancreas
Procedure, shortened: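 Stem-loop RT and SYBR qPCR, normalized to U6, measured PGY-sRNA-26 in blood and organs 12 h after gavage. Dosing was 10 nmol sRNA with 100 μg lipid, pre-mixed and heated 15 min at 90 °C, in 12-h-fasted mice, against saline and free-sRNA groups.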

SMILES: N[C@H](CCCC(=O)O)C(=O)O [Lipid 625, (2R)-2-aminohexanedioic acid]
- overall delivery efficacy: delivering nucleic acids into each tissue and blood tested: best delivery efficacy
- oral delivery of single-stranded sRNA nucleic acids into mouse blood: can effectively orally deliver
- oral delivery of single-stranded sRNA nucleic acids into mouse brain tissue: can effectively orally deliver
- oral delivery of single-stranded sRNA nucleic acids into mouse femur: can effectively orally deliver
- oral delivery of single-stranded sRNA nucleic acids into mouse heart tissue: can effectively orally deliver
- oral delivery of single-stranded sRNA nucleic acids into mouse intestinal tissue: can effectively orally deliver
- oral delivery of single-stranded sRNA nucleic acids into mouse kidney tissue: can effectively orally deliver
- oral delivery of single-stranded sRNA nucleic acids into mouse liver tissue: can effectively orally deliver
- oral delivery of single-stranded sRNA nucleic acids into mouse lung tissue: can effectively orally deliver
- oral delivery of single-stranded sRNA nucleic acids into mouse spleen tissue: can effectively orally deliver
- oral delivery of single-stranded sRNA nucleic acids into mouse stomach tissue: can effectively orally deliver

SMILES: C=C(CC(=O)O)C(=O)O [Lipid 626, 2-methylidenebutanedioic acid]
- oral delivery of single-stranded sRNA nucleic acids into mouse blood: can effectively orally deliver
- oral delivery of single-stranded sRNA nucleic acids into mouse brain tissue: can effectively orally deliver
- oral delivery of single-stranded sRNA nucleic acids into mouse femur: can effectively orally deliver
- oral delivery of single-stranded sRNA nucleic acids into mouse heart tissue: can effectively orally deliver
- oral delivery of single-stranded sRNA nucleic acids into mouse intestinal tissue: can effectively orally deliver
- oral delivery of single-stranded sRNA nucleic acids into mouse kidney tissue: can effectively orally deliver
- oral delivery of single-stranded sRNA nucleic acids into mouse liver tissue: can effectively orally deliver
- oral delivery of single-stranded sRNA nucleic acids into mouse lung tissue: can effectively orally deliver

SMILES: O=C(O)CCC(=O)O [Lipid 628, butanedioic acid]
- overall delivery efficacy: delivering nucleic acids into each tissue and blood tested: best delivery efficacy
- oral delivery of single-stranded sRNA nucleic acids into mouse blood: can effectively orally deliver
- oral delivery of single-stranded sRNA nucleic acids into mouse brain tissue: can effectively orally deliver
- oral delivery of single-stranded sRNA nucleic acids into mouse femur: can effectively orally deliver
- oral delivery of single-stranded sRNA nucleic acids into mouse heart tissue: can effectively orally deliver
- oral delivery of single-stranded sRNA nucleic acids into mouse intestinal tissue: can effectively orally deliver
- oral delivery of single-stranded sRNA nucleic acids into mouse kidney tissue: can effectively orally deliver
- oral delivery of single-stranded sRNA nucleic acids into mouse liver tissue: can effectively orally deliver
- oral delivery of single-stranded sRNA nucleic acids into mouse lung tissue: can effectively orally deliver
- oral delivery of single-stranded sRNA nucleic acids into mouse spleen tissue: can effectively orally deliver
- oral delivery of single-stranded sRNA nucleic acids into mouse stomach tissue: can effectively orally deliver

SMILES: CCCCCCCCCCCCCCO [Lipid 635, tetradecan-1-ol]
- overall delivery efficacy: delivering nucleic acids into each tissue and blood tested: best delivery efficacy
- oral delivery of single-stranded sRNA nucleic acids into mouse blood: can effectively orally deliver
- oral delivery of single-stranded sRNA nucleic acids into mouse brain tissue: can effectively orally deliver
- oral delivery of single-stranded sRNA nucleic acids into mouse femur: can effectively orally deliver
- oral delivery of single-stranded sRNA nucleic acids into mouse heart tissue: can effectively orally deliver
- oral delivery of single-stranded sRNA nucleic acids into mouse intestinal tissue: can effectively orally deliver
- oral delivery of single-stranded sRNA nucleic acids into mouse kidney tissue: can effectively orally deliver
- oral delivery of single-stranded sRNA nucleic acids into mouse liver tissue: can effectively orally deliver
- oral delivery of single-stranded sRNA nucleic acids into mouse lung tissue: can effectively orally deliver
- oral delivery of single-stranded sRNA nucleic acids into mouse spleen tissue: can effectively orally deliver
- oral delivery of single-stranded sRNA nucleic acids into mouse stomach tissue: can effectively orally deliver

SMILES: CCCCCCCCCCCCCCCCCCO [Lipid 636, octadecan-1-ol]
- overall delivery efficacy: delivering nucleic acids into each tissue and blood tested: best delivery efficacy
- oral delivery of single-stranded sRNA nucleic acids into mouse blood: can effectively orally deliver
- oral delivery of single-stranded sRNA nucleic acids into mouse brain tissue: can effectively orally deliver
- oral delivery of single-stranded sRNA nucleic acids into mouse femur: can effectively orally deliver
- oral delivery of single-stranded sRNA nucleic acids into mouse heart tissue: can effectively orally deliver
- oral delivery of single-stranded sRNA nucleic acids into mouse intestinal tissue: can effectively orally deliver
- oral delivery of single-stranded sRNA nucleic acids into mouse kidney tissue: can effectively orally deliver
- oral delivery of single-stranded sRNA nucleic acids into mouse liver tissue: can effectively orally deliver
- oral delivery of single-stranded sRNA nucleic acids into mouse lung tissue: can effectively orally deliver
- oral delivery of single-stranded sRNA nucleic acids into mouse spleen tissue: can effectively orally deliver
- oral delivery of single-stranded sRNA nucleic acids into mouse stomach tissue: can effectively orally deliver

SMILES: CCCCCCCCCCCC(=O)OC/C=C(\C)CC/C=C(\C)CCC=C(C)C [Lipid 802, [(2E,6E)-3,7,11-trimethyldodeca-2,6,10-trienyl]dodecanoate]
- overall delivery efficacy: delivering nucleic acids into each tissue and blood tested: best delivery efficacy
- oral delivery of single-stranded sRNA nucleic acids into mouse blood: can effectively orally deliver
- oral delivery of single-stranded sRNA nucleic acids into mouse brain tissue: can effectively orally deliver
- oral delivery of single-stranded sRNA nucleic acids into mouse femur: can effectively orally deliver
- oral delivery of single-stranded sRNA nucleic acids into mouse heart tissue: can effectively orally deliver
- oral delivery of single-stranded sRNA nucleic acids into mouse intestinal tissue: can effectively orally deliver
- oral delivery of single-stranded sRNA nucleic acids into mouse kidney tissue: can effectively orally deliver
- oral delivery of single-stranded sRNA nucleic acids into mouse liver tissue: can effectively orally deliver
- oral delivery of single-stranded sRNA nucleic acids into mouse lung tissue: can effectively orally deliver
- oral delivery of single-stranded sRNA nucleic acids into mouse pancreatic tissue: can effectively orally deliver
- oral delivery of single-stranded sRNA nucleic acids into mouse spleen tissue: can effectively orally deliver
- oral delivery of single-stranded sRNA nucleic acids into mouse stomach tissue: can effectively orally deliver

SMILES: CCCCCCCCCC(=O)OC/C=C(\C)CC/C=C(\C)CCC=C(C)C [Lipid 803, [(2E,6E)-3,7,11-trimethyldodeca-2,6,10-trienyl]decanoate]
- overall delivery efficacy: delivering nucleic acids into each tissue and blood tested: best delivery efficacy
- oral delivery of single-stranded sRNA nucleic acids into mouse blood: can effectively orally deliver
- oral delivery of single-stranded sRNA nucleic acids into mouse brain tissue: can effectively orally deliver
- oral delivery of single-stranded sRNA nucleic acids into mouse femur: can effectively orally deliver
- oral delivery of single-stranded sRNA nucleic acids into mouse heart tissue: can effectively orally deliver
- oral delivery of single-stranded sRNA nucleic acids into mouse intestinal tissue: can effectively orally deliver
- oral delivery of single-stranded sRNA nucleic acids into mouse kidney tissue: can effectively orally deliver
- oral delivery of single-stranded sRNA nucleic acids into mouse liver tissue: can effectively orally deliver
- oral delivery of single-stranded sRNA nucleic acids into mouse lung tissue: can effectively orally deliver
- oral delivery of single-stranded sRNA nucleic acids into mouse pancreatic tissue: can effectively orally deliver
- oral delivery of single-stranded sRNA nucleic acids into mouse spleen tissue: can effectively orally deliver
- oral delivery of single-stranded sRNA nucleic acids into mouse stomach tissue: can effectively orally deliver
